{"source": "patent US20240115545A1", "about": "“PHARMACEUTICAL COMPOSITION CONTAINING B-LAPACHONE AS ACTIVE INGREDIENT FOR PREVENTION OR TREATMENT OF CHOLESTATIC LIVER DISEASE” (CUROME BIOSCIENCES CO., LTD., priority 2020, published 2024)", "assay_type_in_all_cases": "in vivo", "key": {"[1]": {"system": "DSS-induced inflammatory bowel disease mice", "assay": "Survival rate, body weight and colitis score in DSS-induced acute colitis mice (Example 6.1)", "details": "for mice died: 14th day of the experiment (DSS alone 70%)", "experimental": "Dextran sodium sulfate (DSS)-induced acute colitis mouse models were constructed using 8-week-old C57BL/6 female mice (Samtako, Korea).\nAfter 8-week-old C57BL/6 female mice (Samtako, Korea) were divided into each group (=10), each experimental group was fed a standard rodent diet supplemented with 3% (w/w) DSS in drinking water for the first 5 days to induce acute colitis and orally administered control (vehicle), β-lapachone 40 mg/kg, and β-lapachone 80 mg/kg for 14 days.\nAll animal-related procedures were discussed and approved by the Institutional Animal Care and Use Committee of the Hanyang University. The survival rate over time is shown in FIG. 9, and the change rate in body weight of mice in each experimental group was measured and shown in FIG. 10A. The fecal occult bleeding per rectum, total bleeding loss, and fecal concentration were measured daily."}, "[2]": {"system": "Poly I:C-induced cholestatic liver disease animal models", "assay": "Blood AST, ALT, ALP in Poly I:C-induced primary biliary cirrhosis mice (Example 5)", "experimental": "Of cholestatic liver diseases, primary biliary cirrhosis (PBC) may be introduced to a similar state by using a viral RNA mimic and the Toll-like receptor polyinosinic-polycytidylic acid (Poly I:C). After 8-week-old C57BL/6 male mice (Samtako, Korea) were divided into each group (=6), each experimental group excluding a normal group was intraperitoneally administered 5 mg/kg Poly I:C twice a week for 8 weeks. Thereafter, the mice were fed a diet with control (vehicle), β-lapachone 40 mg/kg, β-lapachone 80 mg/kg, and positive control ursodeoxycholic acid 100 mg/kg and obeticholic acid 30 mg/kg for 8 weeks. On the 16th week of treatment, the experiment was ended, and the mice were sacrificed and then the blood was collected from the heart."}, "[3]": {"system": "DDC-induced cholestatic liver disease mice", "assay": "H&E histology of portal vein and bile duct lesions, preventive β-lapachone in DDC-induced cholestatic liver disease mice", "experimental": "DDC-induced cholestatic liver disease mouse animal models were prepared according to the method of Elisa Pose et al. by using 8-week-old C57BL/6 male mice (Samtako, Korea). Briefly, cholestatic liver disease was induced by feeding a standard rodent diet supplemented with 0.1% (w/w) DDC for 7 or 14 days. The 12-hour light and dark cycle was maintained and animals were allowed to free access to water. The standard rodent diet included medium wheat, wheat, corn, and corn gluten flour, and soybean oil (14% protein). All animal related procedures were reviewed and approved by the Institutional Animal Care and Use Committee of Korea Research Institute of Bioscience and Biotechnology (KRIBB), KRIBB-AEC-20165). The tissue staining of the cholestatic liver disease animal models was measured through H&E staining (basic tissue staining), Sirius Red staining (collagen staining), and Masson's trichrome staining (collagen, cytoplasm, muscle fibers, etc.), and the tissue staining was measured by a skilled researcher. After the mice were fed a diet containing 0.1% DDC for 14 days, tissue staining was performed for inflammation, fibrosis, and adhesion molecules around the portal vein, and the results are shown in FIG. 1. […]"}, "[4]": {"system": "fibrosis-related genes", "assay": "Real-time PCR of fibrosis-related genes in liver tissue, preventive β-lapachone in DDC mice (Example 2.3)", "details": "DDC-BL40 and DDC-BL80 vs DDC-vehicle, DDC 14 days", "experimental": "DDC-induced cholestatic liver disease mouse animal models were prepared according to the method of Elisa Pose et al. by using 8-week-old C57BL/6 male mice (Samtako, Korea). Briefly, cholestatic liver disease was induced by feeding a standard rodent diet supplemented with 0.1% (w/w) DDC for 7 or 14 days. The 12-hour light and dark cycle was maintained and animals were allowed to free access to water. The standard rodent diet included medium wheat, wheat, corn, and corn gluten flour, and soybean oil (14% protein). All animal related procedures were reviewed and approved by the Institutional Animal Care and Use Committee of Korea Research Institute of Bioscience and Biotechnology (KRIBB), KRIBB-AEC-20165). To investigate the preventive effect of β-Lapachone (BL) on cholestatic liver disease, the mice were fed a diet with 0 (DDC-vehicle), 40 mg/kg (DDC-BL40) and 80 mg/kg (DDC-BL80) 3 days before DDC treatment (total 17 days) and, after 3 days, were fed a diet with DDC (total 14 days). After 14 days of DDC treatment, the mice were sacrificed and the liver was harvested including the portal vein (PV) and bile ducts of the mice, and the surrounding lesions were confirmed by H&E, and are shown in FIG. 1. The expression of the factors in the liver tissue obtained from the cholestatic liver disease mouse animal models of Example 2.1 was performed by a real-time polymerase chain reaction was performed according to the following procedure. Total RNA from liver samples was extracted using Tri-RNA Reagent (Favrogen BIOTECH CORP, Nong-Ke Rd, Taiwan) according to the procedure presented by Favrogen, and was reverse transcribed into cDNA by using PrimeScript™ RT reagent Kit with gDNA Eraser (TAKARA Korea Biomedical Inc, Seoul, 08506, Korea). Quantitative PCR was performed using TB Green™ Premix Ex Taq™ II (Tli RNaseH Plus), ROX plus (TAKARA Korea Biomedical Inc, Seoul, 08506, Korea) and QuantStudio 5 Real-Time PCR Instrument (Thermo Fisher Scientific, Waltham, MA, USA)."}, "[5]": {"details": "β-lapachone 40, 80 mg/kg in diet for 8 weeks after 8 weeks Poly I:C"}}}
{"compound": "CC1(C)CCC2=C(O1)c1ccccc1C(=O)C2=O", "note": "[β-lapachone]", "values": [{"measurement": "mice died", "setting": "[1]; 40 mg/kg orally for 14 days", "result": 50, "unit": "%"}, {"measurement": "body weight recovered, relative to initial body weight", "setting": "[1]; 80 mg/kg orally (DSS alone reduced to 75% on Day 8)", "result": "up to 90%"}, {"measurement": "mice died", "setting": "[1]; 80 mg/kg orally for 14 days", "result": 20, "unit": "%"}, {"measurement": "colitis score", "setting": "[1]; 40 and 80 mg/kg orally, 14 days", "result": "reduced depending on the treatment concentration"}, {"measurement": "body weight reduction by DSS", "setting": "[1]; groups treated with β-lapachone 40 and 80 mg/kg orally", "result": "inhibited"}, {"measurement": "effect on AST, ALT, ALP compared with comparative substances", "setting": "[2]; vs ursodeoxycholic acid 100 mg/kg and obeticholic acid 30 mg/kg, 8 weeks", "result": "excellent effect compared with the comparative substances ursodeoxycholic acid (UDCA) and obeticholic acid (OCA)"}, {"measurement": "ALP in the blood increased by Poly I:C", "setting": "[2]; [5]", "result": "inhibited"}, {"measurement": "ALT in the blood increased by Poly I:C", "setting": "[2]; [5]", "result": "inhibited"}, {"measurement": "AST in the blood increased by Poly I:C", "setting": "[2]; [5]", "result": "inhibited"}, {"measurement": "concentration dependence of lesion reduction of portal vein and bile ducts (H&E)", "setting": "[3]; 80 mg/kg (BL80) compared with 40 mg/kg (BL40)", "result": "reduced the lesions of the DDC-treated portal vein and bile ducts depending on the concentration thereof"}, {"measurement": "lesions around the portal vein (PV) and bile ducts (H&E)", "setting": "[3]; DDC-BL40 and DDC-BL80 (40 and 80 mg/kg in diet from 3 days before DDC, total 17 days; DDC 14 days) vs DDC-vehicle", "result": "significant lesion reductions"}, {"measurement": "transcriptional level of Co|1α1 in liver", "setting": "[4]", "result": "significantly reduced"}, {"measurement": "transcriptional level of Co|4α1 in liver", "setting": "[4]", "result": "significantly reduced"}, {"measurement": "transcriptional level of TGF-β1 in liver", "setting": "[4]", "result": "significantly reduced"}, {"measurement": "transcriptional level of fibronectin in liver", "setting": "[4]", "result": "significantly reduced"}, {"measurement": "transcriptional level of α-SMA in liver", "setting": "[4]", "result": "significantly reduced"}]}
